Laboratory results reported in US5648382A, “Cyclohexane compounds” (Adir et Compagnie, priority 1995, dated 1997).

Key:
[1] = tested on: chicken embryo chorio-allantoic membrane; assay: Inhibition of neovascularization of chicken embryo chorioallantoic membrane; assay type: in vivo; conditions: avascular zone greater than 4 mm in diameter, 48 hours after disk placed on CAM on day 6
Method: Example B: Inhibition of Neovascularization of Chicken Embryo Chorioallantoic Membrane
This test was carried out with chicken embryos in the manner described above (Crum R., Szabo S. and Folkman J., Science, (1985), 230, 1375-1378). The fertilized eggs are incubated at 37° C. (D0). A pocket of air is created by removing 1 ml of albumin (D3), then a window is cut from the shell (D4) and the vitelline membrane is removed in order to separate the chorio-allantoic membrane (CAM).
The products to be tested are dissolved in ethanol and placed on methylcellulose disks which are dried and placed on the CAM on day 6. From 8 to 16 eggs are used per group. The zone situated round the disk is then examined 48 hours later. The eggs having an avascular zone greater than 4 mm in diameter are counted and the results are expressed as a percentage of eggs having an avascular zone.

[2] = tested on: tumour; assay: Antitumour activity in mice, subcutaneous tumour implant; assay type: in vivo; conditions: i.p., day 1 to day 12, tumour weight on day 13
Method: Example C: Antitumour Activity
The antitumour activity of the compounds of the invention was studied in accordance with the protocol described by R. I. Geran et al, Cancer Chemotherapy Reports, (1972), Part 3, pages 3 et seq.
Mice were divided at random into treated groups (11 mice per group) and a control group of 40 mice.
Tumour fragments were implanted on day 0 (subcutaneous implant). The compounds to be tested were administered for 12 days (day 1 to day 12) by the i.p. route.
The average weight of the tumour was determined on day 13 after implantation. The percentage inhibition was calculated in accordance with the following formula: [formula] As an example, the compound of Example 27 gave the following results: […]

Row | SMILES | % of eggs having an avascular zone [1] [%] | % inhibition (tumour weight) ([2]; 30 mg/kg) [%] | % inhibition (tumour weight) ([2]; 60 mg/kg) [%]
1 | CC(C)CCCC12OC1C(OC(=O)NC(=O)CCl)CCC21CO1 (stereo not drawn) [Example 21, 5-Chloroacetylcarbamoyloxy-2-(2-spiro-oxiranyl)-1-(4-methyl-pentyl)-7-oxabicyclo[4.1.0]heptane] | 76 ± 6 |  | 
2 | O=C(CCl)NC(=O)O[C@@H]1CC[C@]2(CO2)[C@](CCCCCc2ccccc2)(OC(=O)NC(=O)CCl)C1 (relative stereo) [Example 27, (3S*,4R*,6R*)-4,6-Dichloroacetylcarbamoyloxy-4-(5-phenylpentyl)-1-oxa-spiro[2.5]octane] |  | 56 | 82
3 | O=C(CCl)NC(=O)O[C@H]1CC[C@]2(CO2)[C@@](CCCCCc2ccccc2)(OC(=O)NC(=O)CCl)C1 (relative stereo) [Example 28, (3S*,4S*6S*)-4,6-Dichloroacetylcarbamoyloxy-4-(5-phenylpentyl)-1-oxa-spiro[2.5]octane] | 90 ± 4 |  | 
4 | CC1([C@@]23OC(=O)O[C@@H]2[C@H](OC(=O)NC(=O)CCl)CC[C@]32CO2)CO1 (relative stereo) [Example 23, (3S*,4S*,5R*,6R*)-6-Chloroacetylcarbamoyloxy-4-(2-methyl-oxiran-2-yl)-1-oxa-spiro[2.8]benzo[1.3]dioxol-2-one] | 78 ± 7 |  | 
5 | CC1([C@]23O[C@H]2[C@@H](OC(=O)NC(=O)CCl)CC[C@]32CO2)CO1 (single isomer, unassigned) [Example 17 Diastereoisomer A, (1R*,2S*,5S*,6S*)-5-Chloroacetylcarbamoyloxy-1-[(2S* and 2R*)-(2-methyloxiran-2-yl)]-2-(2-spiro-oxiranyl)-7-oxabicyclo[4.1.0]heptan] | 74 ± 7 |  | 
6 | CC1([C@]23O[C@H]2[C@H](OC(=O)NC(=O)CCl)CC[C@]32CO2)CO1 (single isomer, unassigned) [Example 30 Diastereoisomer A, (1R*,2S*,5R*,6S*)-5-Chloroacetylcarbamoyloxy-1-[(2S* and 2R*)-(2-methyloxiran-2-yl)]-2-(2-spiro-oxiranyl)-7-oxabicyclo[4.1.0]heptan] | 75 ± 7 |  | 
7 | CC1([C@]23O[C@H]2[C@H](OC(=O)NC(=O)CCl)CC[C@]32CO2)CO1 (single isomer, unassigned) [Example 30 Diastereoisomer B, (1R*,2S*,5R*,6S*)-5-Chloroacetylcarbamoyloxy-1-[(2S* and 2R*)-(2-methyloxiran-2-yl)]-2-(2-spiro-oxiranyl)-7-oxabicyclo[4.1.0]heptan] | 68 ± 5 |  | 
8 | O=C(CCl)NC(=O)O[C@@H]1CC[C@]2(CO2)[C@@]2(CCCCCc3ccccc3)O[C@@H]12 (relative stereo) [Example 18, (1S*,2S*,5R*,6S*)-5-Chloroacetylcarbamoyloxy-2-(2-spiro-oxiranyl)-1-(5-phenyl-pentyl)-7-oxabicyclo[4.1.0]heptane] | 69 ± 6 |  | 
9 | C=C(C)[C@]12O[C@H]1[C@H](OC(=O)NC(=O)CCl)CC[C@]21CO1 (relative stereo) [Example 29, (1S*,2S*,5R*,6S*)-5-Chloroacetylcarbamoyloxy-1-isopropenyl-2(2-spiro-oxiranyl)-7-oxabicyclo[4.1.0]heptane] | 66 ± 6 |  | 
10 | O=C(CCl)NC(=O)O[C@@H]1CC[C@]2(CO2)[C@@](O)(CCCCCc2ccccc2)[C@@H]1Br (relative stereo) [Example 10, (3S*, 4S*, 5R*, 6R*)-5-Bromo-6-chloroacetylcarbamoyloxy-4-hydroxy-4-(5-phenylpentyl)-1-oxa-spiro[2.5]octane] | 73 ± 11 |  | 
11 | C[C@@]1(OC(=O)NC(=O)CCl)CC[C@@H](OC(=O)NC(=O)CCl)[C@@H]2O[C@@]21CCCCCc1ccccc1 (relative stereo) [Example 19, (1S*,2R*,5R,*6S*)-2,5-Dichloroacetylcarbamoyloxy-2-methyl-1-(5-phenylpentyl)-7-oxabicyclo[4.1.0]heptane] | 76 ± 9 |  | 
12 | CC1OC1(C)[C@@]1(O)C[C@H](OC(=O)NC(=O)CCl)CC[C@]12CO2 (relative stereo) [Example 7, (3S*; 4R*, 6R*)-6-Chloroacetylcarbamoyloxy-4-hydroxy-4-(2,3-di-methyl-2-oxiranyl)-1-oxa-spiro[2.5]octane] | 81 ± 10 |  | 
13 | CC1OC1(C)[C@@]1(O)C[C@H](OC(=O)NC(=O)CCl)CC[C@]12CO2 (relative stereo) [Example 6, (3S*, 4R*, 6R*)-6-Chloroacetylcarbamoyloxy-4-hydroxy-4-(2,3-dimethyloxiran-2-yl)-1-oxa-spiro[2.5]octane] | 79 ± 9 |  | 
14 | O=C(CCl)NC(=O)O[C@H]1CC[C@]2(CO2)[C@](O)(C2OC2CCCc2ccccc2)[C@H]1Br (single isomer, unassigned) [Example 13] | 70 ± 16 |  | 
